In patent US20250213593A1, “Use of Derivatives based on Sarsasapogenin Structure and Pharmaceutical Compositions thereof” (BEIJING PHYTOVENT PHARMACEUTICAL TECHNOLOGY CO., LTD., priority 2022, published 2025):
In brackets after ≈: the same amount, converted by molar mass. Entries after “also recorded” stand apart in the source; their conditions may differ.

Legend:
[1] = tested on: transgenic neutrophil fluorescent zebrafishes; experiment: Maximum tolerated concentration (MTC) in LPS-induced inflammation zebrafish; type: in vivo; settings: for Death count / Death rate (%): n = 30; for If precipitation occurred?: fish-farming water
From the text: Transgenic neutrophil fluorescent zebrafishes were matched and propagated naturally in pairs. The age was 3 days after fertilization (3 dpf), and there was a total of 810 zebrafishes, with 30 zebrafishes per experimental group. The purposes were to determine maximum tolerated concentrations (MTC) of “Embodiment 5” and “Embodiment 6” in an LPS-induced inflammation experiment, and evaluate anti-inflammatory effects of “Embodiment 5” and “Embodiment 6” on LPS-induced inflammations.
(§1) LPS was used to treat normal 3 dpf transgenic neutrophil fluorescent zebrafishes in a yolk sac injection, and a zebrafish inflammation model was established.
Transgenic neutrophil fluorescent zebrafishes (3 dpf), well developed and consistent in stage on 3 days after fertilization, were picked under a microscope and placed in a six-well plate, with 30 zebrafishes being randomly picked for each well at a capacity of 3 mL in each well. A zebrafish inflammation model was established by administrating LPS in a yolk sac injection. “Embodiment 5” and “Embodiment 6” were respectively dissolved with water, wherein the concentrations were 0.625 μM, 1.25 μM, 2.5 μM, 5 μM, 10 μM, 50 μM, 100 μM and 200 μM, respectively. Meanwhile, anormal control group (i.e., zebrafishes were treated with fish-farming water) and a model control group were set, and cultured in a 28° C. incubator for 3 h, and the death of zebrafishes was then observed and recorded. The number of dead zebrafishes in each experimental group was counted, and the maximum tolerated concentrations (MTCs) of zebrafishes in “Embodiment 5” and “Embodiment 6” were determined.

[2] = tested on: transgenic neutrophil fluorescent zebrafishes; experiment: Anti-inflammatory effect on LPS-induced inflammatory zebrafish; type: in vivo
Description: as §1
Transgenic neutrophil fluorescent zebrafishes (3 dpf), well developed and consistent in stage on 3 days after fertilization, were picked under a microscope and placed in a six-well plate, with 30 zebrafishes being randomly picked for each well at a capacity of 3 mL in each well. A zebrafish inflammation model was established by administrating LPS in a yolk sac injection. “Embodiment 5” and “Embodiment 6” were respectively dissolved with water, wherein the concentrations were 0.28 μM, 0.83 μM and 2.5 μM, respectively. The concentration of indomethacin was 80 μM. Meanwhile, a normal control group (i.e., zebrafishes were treated with fish-farming water) and a model control group were set, and incubated in a 28° C. incubator for 3 h. 10 zebrafishes were randomly selected from each group, and observed and photographed under a fluorescence microscope, and the photos were saved. Nikon NIS-Elements D 3.10 advanced image processing software was used for image analysis, the number (N) of inflammatory neutrophils in zebrafish was calculated, and the statistical processing results were expressed as mean±SE. The statistical analysis results of the number of inflammatory neutrophils in zebrafish were used to evaluate whether “Embodiment 5” and “Embodiment 6” had significant anti-inflammatory effects on LPS-induced inflammatory zebrafish, respectively. A formula for calculating the anti-inflammatory effects of “Embodiment 5” and “Embodiment 6” was as follows: […]

physchem = settings: organic solvent or mixture
[3] = tested on: C57BL/6 mice modeled with MPTP; experiment: PD mouse model (MPTP); type: in vivo; settings: 80 mpk, 15 days; vs model group, T-test
Description: • Experimental and analytical method: mice of C57BL/6 strain were used in this experiment, which were divided into 5 groups, including a normal control group (no injection of MPTP), a model group (modeling with MPTP), and treatment groups of three small molecules (Embodiment 13B, Embodiment 25A, and Embodiment 25B). The drug was administered at the same time as modeling was made. The modeling lasted for 5 days, followed by 30 mpk intraperitoneal injection till lasting for 15 days, and lasted for 15 days at 80 mpk. At the endpoint, the brain was soaked and fixed in PFA after cardiac perfusion, and transferred to sucrose dehydration after complete fixation, and OCT embedding and sectioning were used for TH staining after complete dehydration. The detection indicator was the number of TH-positive cells in the substantia nigra. The more positive cells, the better the protection effect of small molecules against MPTP damage. • Results: there were 12 mice in each group, and the statistical results were shown in FIG. 50, T-test, **: p<0.01, #: p<0.05.

[4] = tested on: Raji-Luc hematologic tumor cells in NOD-Scid immunodeficient mice; experiment: NOD-Scid mice inoculated with hematologic tumor cells Raji-Luc; settings: 100 mpk by gavage once a day
[5] = tested on: transgenic AD mice (C57BL/6J background); experiment: Light/dark box test of AD mice; type: in vivo, mouse; settings: 6 months after administration
From the text: The principle of the light/dark box test is: the mice have a natural tendency to darkness; and after the mice was put into a light box, the mice would spontaneously enter a connected dark box. However, in this experiment, the dark box was equipped with an electrical stimulation mechanism, and the mice would be shocked when they entered the dark box.

[6] = tested on: C57BL/6 mouse MCAO damage model; experiment: Mice middle cerebral artery occlusion (MCAO) damage model; type: in vivo; settings: 24 h after surgery, vs MCAO model group
Description: Animal grouping and treatment: according to body weight on Day 1, the animals were randomly divided into a total of 8 groups (N=5), one group was treated every day, and 3 animals were selected in each group for measuring cerebral blood flows.
If the hind paws of the mice had no response when clamped with dissecting forceps, they were transferred to an anesthesia mask, and the isoflurane concentration would be increased to 1.5%. A thermostat and an anal temperature probe were used to maintain intraoperative body temperatures of the mice near 37° C. […]
Measurement of cerebral blood flow: the head of each mouse was fixed under a brain stereotaxic instrument, the head hair of the mouse was shaved, and an incision was made in the middle. […] Optical fibers of a laser Doppler flow meter were fixed with glue at coordinates of Bregma AP 1.0 mm and ML 5.0 mm, and the blood flow changes during MCA surgery were recorded. […]
• Body weight: the body weights of the mice on the day before surgery and 24 h after surgery were recorded. • Neurological function scoring: Longa behavioral scoring was performed at 2 h and 24 h after surgery. […]
Each mouse was tested for forelimb grip 24 h before surgery and 24 h after surgery. […] The grip peaks were recorded, repeatedly measured for three times, and averaged. […]

[7] = tested on: primary cultured neurons in rats (cerebral cortex); experiment: Oxygen glucose deprivation (OGD) injury of primary cultured rat neurons; type: cell-based
From the text: Experimental and analytical method: rats, 15 days pregnant, were ordered, brains of fetal rats (E15-16) were dissected, and neurons in the cerebral cortex were subjected to primary culture in a neuronal medium for 14 days (DIV 14) using 48-well plates, followed by an OGD experiment. During the OGD experiment, a neuronal culture solution was replaced by a glucose- and oxygen-free culture solution (95% N2/5% CO2 balance), and the neurons were subjected to OGD treatment in an OGD chamber. Then, the oxygen- and glucose-free culture medium was replaced by a normal neuronal culture solution, which was then cultured in a 95% Air/5% CO2 incubator for 24 h for neuronal activity analysis. By staining with Hoechst 33342 and Propidium iodide, a high-content fluorescence microscope was used for photographing, wherein 20 random non-overlapping visual fields were photographed per duplicate well, and the total number of neurons and the number of dead neurons were counted by software (Thermo Scientific™, HCS Studio Cell Analysis Software). […]

[8] = concentration 0.625 (table head μg/mL; text μM)
[9] = concentration 0.625 (table head μg/mL; text μM), 3 h
[10] = concentration 1.25 (table head μg/mL; text μM)
[11] = concentration 1.25 (table head μg/mL; text μM), 3 h
[12] = concentration 2.5 (table head μg/mL; text μM)
[13] = concentration 2.5 (table head μg/mL; text μM), 3 h
[14] = concentration 5 (table head μg/mL; text μM), 3 h
[15] = concentration 10 (table head μg/mL; text μM), 3 h
[16] = concentration 50 (table head μg/mL; text μM), 3 h
[17] = concentration 100 (table head μg/mL; text μM), 3 h
[18] = concentration 200 (table head μg/mL; text μM), 3 h

Compound: C[C@H]1CC[C@@]2(OC1)O[C@H]1C[C@H]3[C@@H]4CC[C@@H]5CC(NC(=O)CC(=O)N6CCN(C)CC6)CC[C@]5(C)[C@H]4CC[C@]3(C)[C@H]1[C@@H]2C (stereo partly shown) [Embodiment 5]
- Toxicity [1, 8]: No obvious toxicity
- Death count [1, 9]: 0
- Death rate (%) [1, 9]: 0%
- If precipitation occurred? [1, 8]: No
- Toxicity [1, 10]: No obvious toxicity
- Death count [1, 11]: 0
- Death rate (%) [1, 11]: 0%
- If precipitation occurred? [1, 10]: No
- Toxicity [1, 12]: normal state; also recorded: No obvious toxicity
- Death count [1, 13]: 0
- Death rate (%) [1, 13]: 0%
- If precipitation occurred? [1, 12]: not precipitated and No
- Death count [1, 14]: 3
- Death rate (%) [1, 14]: 10%
- If precipitation occurred? ([1]; concentration 5 (table head μg/mL; text μM)): No
- Death count [1, 15]: 30
- Death rate (%) [1, 15]: 100%
- If precipitation occurred? ([1]; concentration 10 (table head μg/mL; text μM)): No
- Death count [1, 16]: 30
- Death rate (%) [1, 16]: 100%
- If precipitation occurred? ([1]; concentration 50 (table head μg/mL; text μM)): No
- Death count [1, 17]: 30
- Death rate (%) [1, 17]: 100%
- If precipitation occurred? ([1]; concentration 100 (table head μg/mL; text μM)): No
- Death count [1, 18]: 30
- Death rate (%) [1, 18]: 100%
- If precipitation occurred? ([1]; concentration 200 (table head μg/mL; text μM)): No
- maximum tolerated concentration (MTC) ([1]; in the evaluation of the anti-inflammatory effect, LPS zebrafish, 3 h): 2.5 µM
- Inflammation resolution (%) / anti-inflammatory effect ([2]; 0.28 μM): 33%
- Inflammation resolution (%) / anti-inflammatory effect ([2]; 0.83 μM): 61%
- Inflammation resolution (%) / anti-inflammatory effect ([2]; 2.5 μM): 67%
- anti-inflammatory effects on inflammatory zebrafish (in words) ([2]; 0.28 to 2.5 μM, P<0.001 vs model control): obvious anti-inflammatory effects
- solubility (physchem): 20 mM (≈ 11.7 mg/mL)

Compound: CCN1CCN(C2CCN(C(=O)CC(=O)N[C@@H]3CC[C@]4(C)C5CC[C@]6(C)[C@@H]7[C@H](C[C@H]6[C@@H]5CC[C@@H]4C3)O[C@]3(CC[C@H](C)CO3)[C@H]7C)CC2)CC1 (stereo partly shown) [Embodiment 25B]
- number of TH-positive cells in the substantia nigra [3]: only the Embodiment 13B group of three small modules had statistically significant differences
- tumor killing effect (in-vivo fluorescence intensity) [4]: relatively good tumor killing effects

Compound: C[C@H]1CC[C@@]2(OC1)O[C@H]1C[C@H]3[C@@H]4CC[C@@H]5CC(NC(=O)CC(=O)N6CC(N7CCOCC7)C6)CC[C@]5(C)C4CC[C@]3(C)[C@H]1[C@@H]2C (stereo partly shown) [Embodiment 23]
- memory on electric shock (latency before entering the dark box) [5]: could effectively enhance the memory

Compound: CC1=NN(c2ccccc2)C(=O)C1 [Edaravone]
- forelimb grip strength ([6]; Edaravone 10 mg/kg IP, NO. 2 60 mg/kg PO, NO. 3-6 80 mg/kg PO): significant difference
- volume of encephaledema (TTC staining) ([6]; doses as Table 6): significant difference

Compound: O=C1NCCc2c(OCCCCN3CCCCC3)cccc21 [DPQ]
- protective effect on neuronal damages [7]: significant protective effect
- proportion of dead cells ([7]; without OGD 10.32%, DMSO negative control 52.31%): 22.22%
